Measurements as given in ChEMBL document CHEMBL1201862, “PubChem BioAssay data set” (2004).
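Protocol summary: plate cells (96-well), add compound at 5 concentrations, incubate 48 h, interpolate endpoints linearly. At the GI50, growth is halved.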 Active and inactive are the calls of the source. Rule as the data show it: active = GI50 up to about 1.1 µM and inactive = higher.

What was measured:
Experiment in all cases: NCI tumour cell line growth inhibition, 48 h
SN12C = tested on: SN12C
K562 = tested on: K562
SF-295 = tested on: SF-295
SNB-75 = tested on: SNB-75
SF-539 = tested on: SF-539
Malme-3M = tested on: Malme-3M
HCC 2998 = tested on: HCC 2998
CAKI-1 = tested on: CAKI-1
HOP-62 = tested on: HOP-62
RXF 393 = tested on: RXF 393
NCI-H226 = tested on: NCI-H226
BT-549 = tested on: BT-549
SK-MEL-2 = tested on: SK-MEL-2
OVCAR-8 = tested on: OVCAR-8
MCF7 = tested on: MCF7
HT-29 = tested on: HT-29
HCT-15 = tested on: HCT-15
RPMI-8226 = tested on: RPMI-8226
IGROV-1 = tested on: IGROV-1
A549 = tested on: A549
EKVX = tested on: EKVX
SW-620 = tested on: SW-620
KM12 = tested on: KM12
UACC-257 = tested on: UACC-257
CCRF-CEM = tested on: CCRF-CEM
NCI-H460 = tested on: NCI-H460
PC-3 = tested on: PC-3
HCT-116 = tested on: HCT-116
HOP-92 = tested on: HOP-92
SNB-19 = tested on: SNB-19
ACHN = tested on: ACHN
SK-MEL-28 = tested on: SK-MEL-28
MDA-MB-435 = tested on: MDA-MB-435
SR = tested on: SR
DU-145 = tested on: DU-145
TK-10 = tested on: TK-10
NCI-H23 = tested on: NCI-H23
NCI/ADR-RES = tested on: NCI/ADR-RES
UO-31 = tested on: UO-31
U-251 = tested on: U-251
786-0 = tested on: 786-0
HL-60 = tested on: HL-60
MOLT-4 = tested on: MOLT-4
M14 = tested on: M14
UACC-62 = tested on: UACC-62
A498 = tested on: A498
SK-OV-3 = tested on: SK-OV-3
LOX IMVI = tested on: LOX IMVI
OVCAR-5 = tested on: OVCAR-5
MDA-MB-231 = tested on: MDA-MB-231
COLO 205 = tested on: COLO 205
OVCAR-4 = tested on: OVCAR-4
SK-MEL-5 = tested on: SK-MEL-5
NCI-H522 = tested on: NCI-H522
SF-268 = tested on: SF-268
T47D = tested on: T47D

With CC(=O)OCC(OC(C)=O)C(OC(C)=O)C(C=NN(C(C)=O)S(=O)(=O)c1ccc(/C=C2\NC(=O)NC2=O)cc1)OC(C)=O (configuration not stated) the GI50 (SN12C) was > 100 µM (inactive), the GI50 (K562) was > 100 µM (inactive) and the GI50 (SF-295) was > 100 µM (inactive). The GI50 (SNB-75) was > 100 µM (inactive), the GI50 (SF-539) was > 100 µM (inactive) and the GI50 (Malme-3M) was > 100 µM (inactive). For the same molecule, the GI50 (HCC 2998) was > 100 µM (inactive), the GI50 (CAKI-1) was > 100 µM (inactive) and the GI50 (HOP-62) was > 100 µM (inactive). The GI50 (RXF 393) was > 100 µM (inactive), the GI50 (NCI-H226) was > 100 µM (inactive) and the GI50 (BT-549) was > 100 µM (inactive). The GI50 (SK-MEL-2) was > 100 µM (inactive), the GI50 (OVCAR-8) was > 100 µM (inactive) and the GI50 (MCF7) was > 100 µM (inactive). The GI50 (HT-29) was > 100 µM (inactive).
For C(=C\c1ccc(-c2cn3cc(/C=C/C=N/NC4=NCCN4)ccc3n2)cc1)/C=N/NC1=NCCN1, the GI50 (HCT-15) was 3.72 µM, the GI50 (K562) was 0.461 µM (active) and the GI50 (RPMI-8226) was 0.0427 µM (active). The GI50 (IGROV-1) was 2.05 µM (inactive), the GI50 (A549) was 0.294 µM (active) and the GI50 (EKVX) was 1.6 µM (inactive). The GI50 (SNB-75) was 1.31 µM (inactive), the GI50 (SF-539) was 1.57 µM (inactive) and the GI50 (SW-620) was 0.083 µM (active). The GI50 (KM12) was 2 µM (inactive), the GI50 (UACC-257) was 0.887 µM (active) and the GI50 (HCC 2998) was 1.19 µM (inactive). For the same molecule, the GI50 (CCRF-CEM) was 1.66 µM (inactive), the GI50 (CAKI-1) was 1.3 µM (inactive) and the GI50 (RXF 393) was 1.51 µM (inactive). For the same molecule, the GI50 (NCI-H460) was 0.514 µM (active), the GI50 (NCI-H226) was 1.5 µM (inactive) and the GI50 (PC-3) was 1.47 µM (inactive). The GI50 (HCT-116) was 0.589 µM (active), the GI50 (HOP-92) was 1.14 µM (inactive) and the GI50 (SNB-19) was 1.27 µM (inactive). The GI50 (ACHN) was 1.36 µM (inactive), the GI50 (SK-MEL-2) was 1.35 µM (inactive) and the GI50 (SK-MEL-28) was 1.84 µM (inactive). The GI50 (MDA-MB-435) was 1.29 µM (inactive), the GI50 (SR) was 1.04 µM (active) and the GI50 (DU-145) was 2 µM (inactive). For the same molecule, the GI50 (TK-10) was 5.08 µM (inactive), the GI50 (NCI-H23) was 1.72 µM (inactive) and the GI50 (NCI/ADR-RES) was > 25.8 µM (inactive). The GI50 (OVCAR-8) was 1.27 µM (inactive), the GI50 (UO-31) was 3.09 µM (inactive) and the GI50 (U-251) was 0.399 µM (active). For the same molecule, the GI50 (786-0) was 1.32 µM (inactive), the GI50 (HL-60) was 368 nM (active) and the GI50 (MOLT-4) was 2.07 µM (inactive).
In the case of COC(=O)CCC1=C(CC(=O)OC)C(C)(OC)N/C1=N/C(=O)OCc1ccccc1 (configuration not stated), the GI50 (HCT-15) is reported as over 100 µM, the GI50 (SN12C) is reported as > 100 µM (inactive) and the GI50 (K562) is reported as > 100 µM (inactive). For the same molecule, the GI50 (RPMI-8226) was > 100 µM (inactive), the GI50 (SF-295) was > 100 µM (inactive) and the GI50 (IGROV-1) was > 100 µM (inactive). For the same molecule, the GI50 (A549) was > 100 µM (inactive), the GI50 (EKVX) was > 100 µM (inactive) and the GI50 (SNB-75) was > 100 µM (inactive). The GI50 (SF-539) was > 100 µM (inactive), the GI50 (SW-620) was > 100 µM (inactive) and the GI50 (M14) was > 100 µM (inactive). The GI50 (KM12) was > 100 µM (inactive), the GI50 (UACC-257) was > 100 µM (inactive) and the GI50 (UACC-62) was > 100 µM (inactive). For the same molecule, the GI50 (Malme-3M) was > 100 µM (inactive), the GI50 (HCC 2998) was > 100 µM (inactive) and the GI50 (CCRF-CEM) was > 100 µM (inactive). For the same molecule, the GI50 (A498) was > 100 µM (inactive), the GI50 (CAKI-1) was > 100 µM (inactive) and the GI50 (HOP-62) was > 100 µM (inactive). The GI50 (RXF 393) was > 100 µM (inactive), the GI50 (SK-OV-3) was > 100 µM (inactive) and the GI50 (NCI-H460) was > 100 µM (inactive). For the same molecule, the GI50 (NCI-H226) was > 100 µM (inactive), the GI50 (BT-549) was > 100 µM (inactive) and the GI50 (LOX IMVI) was > 100 µM (inactive). The GI50 (OVCAR-5) was > 100 µM (inactive), the GI50 (PC-3) was > 100 µM (inactive) and the GI50 (MDA-MB-231) was > 100 µM (inactive). The GI50 (HCT-116) was > 100 µM (inactive), the GI50 (SNB-19) was > 100 µM (inactive) and the GI50 (ACHN) was > 100 µM (inactive). For the same molecule, the GI50 (SK-MEL-2) was > 100 µM (inactive), the GI50 (SK-MEL-28) was > 100 µM (inactive) and the GI50 (MDA-MB-435) was > 100 µM (inactive). For the same molecule, the GI50 (SR) was > 100 µM (inactive), the GI50 (DU-145) was > 100 µM (inactive) and the GI50 (COLO 205) was > 100 µM (inactive). The GI50 (TK-10) was > 100 µM (inactive), the GI50 (NCI-H23) was > 100 µM (inactive) and the GI50 (NCI/ADR-RES) was > 100 µM (inactive). For the same molecule, the GI50 (OVCAR-8) was > 100 µM (inactive), the GI50 (UO-31) was > 100 µM (inactive) and the GI50 (U-251) was > 100 µM (inactive). The GI50 (786-0) was > 100 µM (inactive), the GI50 (OVCAR-4) was > 100 µM (inactive) and the GI50 (SK-MEL-5) was > 100 µM (inactive). For the same molecule, the GI50 (NCI-H522) was > 100 µM (inactive), the GI50 (MCF7) was > 100 µM (inactive) and the GI50 (SF-268) was > 100 µM (inactive). For the same molecule, the GI50 (T47D) was > 100 µM (inactive), the GI50 (HT-29) was > 100 µM (inactive) and the GI50 (MOLT-4) was > 100 µM (inactive).
In the case of COc1cc(Nc2nc3cc(N)cc(N)c3nc2-c2ccccc2)cc(OC)c1OC, the GI50 (HT-29) is reported as 16.6 µM (inactive).
